Results: patent US9273095B2, “Antibiotic peptide and preparation method therefor and application therefor” (priority 2011, dated 2016)
Values after ≈ are worked out from the molar mass of the structure shown. Where two headings read alike, the source gives them in different places. Non-standard residues stand in square brackets, D forms with d. Residues, ends and D or L forms follow the SMILES beside them.

Experiments:
Feilaoti citrobacter = assay: microbe, parasite or virus in culture; type: cell-based
Method: (§1) The experimental strains are 37 standard strains preserved in lab and clinical isolated bacteria, including drug-resistant bacteria and quality-control bacteria selecting Staphylococcus aureus ATCC29213, Enterococcus faecalis ATCC29212, Escherichia coli ATCC25922, Pseudomonas aeruginosa ATCC27853 and klebsiella pneumoniae ATCC700603.
(§2) (1) Sensitivity test is conducted with two-fold agar dilution method and Denlay multipoint inoculator. Test bacteria are cultured with nutrient broth and brain heart infusion.
(§3) (2) The drug is double diluted into different concentration with MH broth after dissolved and then placed in the plate respectively.
(§4) (3) After dissolved, MH agar culture medium are injected into the plate with drug quantitatively and mixed to make the final concentration of drug are 0.03, 0.06, 0.125, . . . , 128 μg/ml respectively.
(§5) (4) After solidification of the culture medium in the plate, test bacteria (10^4CFU/point) are inoculated by multipoint inoculator and cultured for 18 hours at constant 35° C. Then observe the results.

[1] = system: Acinetobacter calcoaceticus; assay: microbe, parasite or virus in culture; type: cell-based
Method: as §1, §2, §3, §4, §5

Enterobacter cloacae = assay: microbe, parasite or virus in culture; type: cell-based
Method: as §1, §2, §3, §4, §5

Proteus vulgaris = assay: microbe, parasite or virus in culture; type: cell-based
Method: as §1, §2, §3, §4, §5

Enterobacter aerogenes = assay: microbe, parasite or virus in culture; type: cell-based
Method: as §1, §2, §3, §4, §5

Salmonella typhimurium = assay: microbe, parasite or virus in culture; type: cell-based; details: murium
Method: as §1, §2, §3, §4, §5

Serratia marcescens = assay: microbe, parasite or virus in culture; type: cell-based
Method: as §1, §2, §3, §4, §5

[2] = Circular dichroism (CD) spectroscopy, helical structure; type: physicochemical; details: for 50% TFE % helix / Benign buffer % helix: relative to ellipticity (100%) of reference peptide in 50% TFE
Method: The mean residue molar ellipticities of peptides are determined by circular dichroism (CD) spectroscopy, using a Jasco J-720 spectropolarimeter (Jasco, Easton, Md.), at 25° C. under benign conditions (50 mM KH2PO4/K2HPO4/100 mM KCl, pH7), as well as in the presence of an α-helix inducing solvent, 2,2,2-trifluoroethanol (TFE) (50 mM KH2PO4/K2HPO4/100 mM KCL, pH 7 buffer/50% TFE). A 10-fold dilution of a 500 μM stock solution of the peptide is loaded into a 0.02 cm fused silica cell and its mean residue molar ellipticity scanned from 190 to 250 nm. The values of mean residue molar ellipticities of the peptide at a wavelength of 222 nm are used to estimate the relative amount of α-helicity of the peptides.
To determine the secondary structure of peptides in different environments, circular dichroism (CD) spectra of the peptide analogs are measured under physiologically related pH and ionic strength (100 mM KCl, 50 mM aq. PO4, pH 7 referred to as benign conditions) and also in 50% TFE to mimic the hydrophobic environment of the membrane. CD spectra of the peptide analogs are measured under benign conditions (100 mM KCl, 50 mM KH2PO4/K2HPO4, pH 7, referred to as KP buffer) and also in 50% trifluoroethanol (TFE) to mimic the hydrophobic environment of the membrane. […] However, in the presence of 50% TFE, all three L-peptides are fully folded α-helical structures with similar molar ellipticities and helicity.
FIG. 2 illustrates graphical results of Circular dichroism (CD) spectra of peptides at pH 7.4 and 25° C., in 50 mM aq. PO4 containing 100 mM KCl, wherein KP buffer (50 mM KH2PO4, K2HPO4, 100 mM KCl, pH 7.4) mimics hydrophilic environment and KP buffer-TFE (1:1 [vol/vol]) mimics hydrophobic environment of cell membrane. The figure above represents the CD spectra of peptides in benign buffer without TFE, whilst the figure below represents CD spectra obtained in the presence of 50% TFE.

Enterococcus faecium = assay: microbe, parasite or virus in culture; type: cell-based
Method: as §1, §2, §3, §5

Enterococcus faecalis = assay: organism not typed; type: cell-based; details: read-out: MIC
Method: as §1, §2, §3, §5

Shigella sonnei = assay: microbe, parasite or virus in culture; type: cell-based; details: Shigella sonnei strains 51592
Method: as §1, §2, §3, §4, §5

Shigella = assay: microbe, parasite or virus in culture; type: cell-based
Method: as §1, §2, §3, §4, §5

Shigella flexneri = assay: microbe, parasite or virus in culture; type: cell-based
Method: as §1, §2, §3, §4, §5

Pseudomonas aeruginosa = assay: microbe, parasite or virus in culture; type: cell-based
Method: as §1, §2, §3, §4, §5

Staphylococcus aureus = assay: microbe, parasite or virus in culture; type: cell-based
Method: as §1, §2, §3, §4, §5

Typhoid bacillus H901 = assay: microbe, parasite or virus in culture; type: cell-based
Method: as §1, §2, §3, §4, §5

Escherichia coli = assay: microbe, parasite or virus in culture; type: cell-based; details: 08-5 (ESBLs) Extended Spectyumβ-lactamase
Method: as §1, §2, §3, §4, §5

Molecule | MIC (Feilaoti citrobacter) | MIC [1] | MIC (Enterobacter cloacae) | MIC (Proteus vulgaris) | MIC (Enterobacter aerogenes) | MIC (Salmonella typhimurium) | MIC (Serratia marcescens) | 50% TFE % helix [2] | Benign buffer % helix [2] | other results
CC(=O)N[C@H](Cc1ccccc1)C(=O)N[C@H](CCCCN)C(=O)N[C@H](CCCCN)C(=O)N[C@H](Cc1ccccc1)C(=O)N[C@H](CCCCN)C(=O)N[C@H](CCCCN)C(=O)N[C@H](CC(C)C)C(=O)N[C@H](CC(C)C)C(=O)N[C@H](CO)C(=O)N[C@H](CCCCN)C(=O)N[C@H](CC(C)C)C(=O)N[C@H](Cc1c[nH]c2ccccc12)C(=O)N[C@H](CC(N)=O)C(=O)N[C@H](Cc1c[nH]c2ccccc12)C(=O)N[C@H](CCCCN)C(N)=O [PL-43] (Ac-[dF][dK][dK][dF][dK][dK][dL][dL][dS][dK][dL][dW][dN][dW][dK]-NH2; N-terminus and C-terminus assumed) | 0.3 µM (≈ 0.611 µg/mL) | 0.3 µM (≈ 0.611 µg/mL) | 0.03 µM (≈ 0.0611 µg/mL) | 0.3 µM (≈ 0.611 µg/mL) | 0.003 µM (≈ 0.00611 µg/mL) | 0.3 µM (≈ 0.611 µg/mL) | 0.3 µM (≈ 0.611 µg/mL) | 96.3% | 14.0% | 
Ac-FKKLKKLFSKLWNWK-NH2 [PL-13] | 1.3 µM | .3 µM | 1.3 µM | 0.3 µM | 2.7 µM | 1.3 µM | 0.3 µM | 80.7% | 8.3% | MIC (Enterococcus faecium; 06-12 (VREF) Vancomycin-resistant enterococci): 5.3 µM; MIC (Enterococcus faecium; Enterococcus faecium 06-1): 5.3 µM; MIC (Enterococcus faecalis; 06-71 (VRE) Vancomycin-resistant Enterococci): 1.7 µM; MIC (Enterococcus faecalis; HH22* (AMEs) Aminoglycoside-modifying enzyme): 1.7 µM; MIC (Enterococcus faecalis): 5.3 µM; MIC (Enterococcus faecalis; strain 06-7 (listed under Enterococcus faecalis)): 1.3 µM; MIC (Shigella sonnei): 0.7 µM; MIC (Shigella): 0.7 µM; MIC (Shigella flexneri): 0.7 µM; MIC (Pseudomonas aeruginosa): 1.3 µM; MIC (Staphylococcus aureus): 0.7 µM; MIC (Staphylococcus aureus; 08-49(MSSA) Meticillin susceptible staphylococcus aureus): 2.7 µM; MIC (Staphylococcus aureus; 08-52(MRSA) Methicillin-resistant staphylococcus aureus): 2.7 µM; MIC (Typhoid bacillus H901): 1.3 µM; MIC (Escherichia coli): 0.7 µM; Benign buffer [θ]222 ([2]; mean residue molar ellipticity at 222 nm, 25° C., 100 mM KCl, 50 mM PO4, pH 7.0): −2350 deg · cm^2 · dmol^−1; 50% TFE [θ]222 ([2]; mean residue molar ellipticity at 222 nm, 25° C., buffer containing 50% TFE): −22750 deg · cm^2 · dmol^−1
